Results published in ChEMBL document CHEMBL3988442, “University of Dundee, Small-Polar-MMV Screening Library” (2021).

System: Plasmodium falciparum
Assay: Calibr Malaria Delayed Death Assay SOP
Format: functional, organism-based
Details: for IC50: Plasmodium falciparum

| SMILES | pIC50 | IC50 |
| --- | --- | --- |
| CC(C)n1ncc2c1NC(=O)CC21C(=O)Nc2c(Cl)ccc(Cl)c21 (stereo unspecified) | 5.929 | 1080 nM |
| Br.CCOc1ccc(Br)cc1C1CCCN1 (stereo unspecified) | 6.082 | 534 nM |
| COc1ccc(CN2CCNC(=O)CC2)cc1SC(F)(F)F | 6.078 | 754 nM |
| CC(NCC1CCN(CCO)CC1)c1cccc(Cl)c1 (stereo unspecified) | 6.336 | 442 nM |
| CN1CCC(N(C)c2ccccc2CNCc2ccco2)CC1 | 6.649 | 157 nM |
| COc1ccc(CN2CC[C@@H](O)[C@@H]2Cc2ccccc2)cc1.O=C(O)C(F)(F)F | 5.901 | 1540 nM |
| CCN(C)CC1CCN(S(=O)(=O)c2cc(C)c(F)cc2Cl)C1 (stereo unspecified) | 5.917 | 986 nM |
| Fc1ccccc1Sc1ccccc1CNC1=NCCN1.I | 5.863 | 1610 nM |
| Cc1cc(S(=O)(=O)NCC2CNCCOC2)c(C)cc1Cl (stereo unspecified) | 5.962 | 990 nM |
| CN(CCO)CC1COCCN1C(=O)C1(c2cccs2)CCCC1.O=CO (stereo unspecified) | 6.007 | 573 nM |
| NC1CCCCN(Cc2ccccc2CS(=O)(=O)c2ccccc2)C1 (stereo unspecified) | 6.25 | 568 nM |
| CC(C)CNC(=O)C1(Cc2ccccc2-c2cccs2)CCNC1 (stereo unspecified) | 6.092 | 626 nM |
| CC(N)Cc1ccccc1Sc1ccccc1.O=C(O)/C=C\C(=O)O (stereo unspecified) | 6.082 | 854 nM |
| CCn1ccnc1CN1CCCC(CO)(Cc2cccc(Cl)c2)C1 (stereo unspecified) | 6.076 | 575 nM |
| CN1CC[C@H](N(Cc2ccccc2)CC2CC2)C[C@H](O)C1 | 5.964 | 1570 nM |
| CN(C)CC1CSCCCN1S(=O)(=O)Cc1cccc(F)c1 (stereo unspecified) | 6.26 | 751 nM |
| Br.Cc1cc(C)c(N(CC(O)CNCc2ccccc2)S(C)(=O)=O)c(C)c1 (stereo unspecified) | 6.525 | 355 nM |
| Cl.NCC1(c2cccc(Br)c2)CCOCC1 | 6.127 | 705 nM |
| CC(C)(C)CNCC1(O)CCCN(Cc2ccccc2F)C1=O (stereo unspecified) | 6.115 | 770 nM |
| NC1(C(=O)NCC2CCCN(Cc3ccccc3F)C2)CCCC1 (stereo unspecified) | 6.224 | 470 nM |
| CCc1ccc(C2c3nc[nH]c3CCN2Cc2nccn2CC)nc1 (stereo unspecified) | 6.077 | 819 nM |
| Cc1cccnc1CC(C)NC1Cc2ccccc2C1 (stereo unspecified) | 5.954 | 1290 nM |

| SMILES | pIC50 | IC50 |
| --- | --- | --- |
| Cc1ccccc1N1CCCN(CC2(O)CCCNC2)CC1 (stereo unspecified) | 6.443 | 314 nM |
| CN(Cc1ccco1)C[C@H]1OC[C@@H]2CCN(Cc3ccccn3)C[C@@H]21.O=C(O)C(F)(F)F.O=C(O)C(F)(F)F.O=C(O)C(F)(F)F | 5.905 | 1720 nM |
| C[C@@H]1CN(C(=O)C2CCS(=O)(=O)CC2)CC[C@@]1(O)C1CCOCC1 | 6.055 | 998 nM |
| CN1CCCC1CNC(=O)CCCOc1cccc(Br)c1 (stereo unspecified) | 5.833 | 1170 nM |
| COc1ccccc1C(C)(C)NCc1ccc(C)o1 | 5.785 | 1220 nM |
| CN(C)[C@@H]1CCN(c2ncccn2)[C@H]1Cc1ccccc1 | 6.116 | 554 nM |
| Fc1ccc(Sc2ccccc2CNC2=NCCN2)cc1.I | 5.875 | 1210 nM |
| CC(NCCc1nccn1Cc1ccccc1)c1ccsc1 (stereo unspecified) | 6.094 | 1000 nM |
| Cc1cc(F)ccc1-c1ccccc1CC1CNCCNC1=O.Cl (stereo unspecified) | 6.113 | 1190 nM |
| COc1cccc(CN(C)Cc2[nH]c3ccccc3c2C)c1O | 6.46 | 310 nM |
| OC[C@@H]1CCCN1c1nccc(-c2c[nH]nc2-c2ccncc2)n1 | 6.195 | 764 nM |
| CCN1CCC2(CC1)CC(NCc1cccc(C)n1)c1ccccc1O2.O=C(O)C(F)(F)F.O=C(O)C(F)(F)F.O=C(O)C(F)(F)F (stereo unspecified) | 6.22 | 780 nM |
| Cc1ccc(CN(Cc2ccccn2)C2CC(C)(C)NC(C)(C)C2)s1.O=C(O)CC(O)(CC(=O)O)C(=O)O | 6.418 | 432 nM |
| COc1cccc(CNCc2ccccc2Cl)c1O | 6.206 | 677 nM |
| c1cc(N2CCC(CN3CCOCC3)CC2)c2sccc2n1 | 6.066 | 867 nM |
| COc1ccc(C(=O)NCCCOC(C)c2ccccc2)c(OC)c1 (stereo unspecified) | 6.022 | 763 nM |
| CN(CCO)C[C@@H]1CN(Cc2ccccc2-c2ccccc2)C[C@@H]1CO | 6.276 | 611 nM |
| Cc1cccc(C)c1Nc1noc2c1CN(C(=O)c1c[nH]nc1C)CC2 | 6.277 | 691 nM |
| COc1ccc(NC(=O)c2ccc(-n3ncc(C#N)c3N)cc2)cn1 | 5.946 | 1110 nM |
| CN1CCCCC1c1ncc2c(n1)CCN(Cc1ccc(F)cc1)C2 (stereo unspecified) | 5.899 | 1280 nM |
| Fc1ccc(Nc2ccc(C3CCN(Cc4ncc[nH]4)CC3)nc2)nc1 | 6.119 | 987 nM |
| CNC(=O)CCN(C)CC1(c2ccc(Br)cc2)CC1 | 6.438 | 340 nM |

| SMILES | pIC50 | IC50 |
| --- | --- | --- |
| Cc1ncc(CN(C)C2CCCN(CCc3ccccc3)C2)n1C (stereo unspecified) | 6.013 | 783 nM |
| Clc1cccc(C(NCc2ncc[nH]2)c2ccccn2)c1 (stereo unspecified) | 6.581 | 225 nM |
| Cc1ccc(-c2ccccc2CC2(C(=O)NC(C)C)CCCNC2)cc1 (stereo unspecified) | 6.259 | 491 nM |
| Cc1ccc(OC2(C(=O)N(C)Cc3ccoc3)CCNCC2)cc1 | 6.094 | 701 nM |
| CN(Cc1ccco1)C[C@H]1OC[C@@H]2CCN(Cc3ccsc3)C[C@@H]21.O=C(O)C(F)(F)F.O=C(O)C(F)(F)F | 6.029 | 1290 nM |
| COc1cccc(CN2CC(=O)N(c3ccccc3C)CC2C)c1OC (stereo unspecified) | 5.928 | 1420 nM |
| Cc1cc2c(cc1CN1CCCCC1CCn1ccnc1C)OCO2 (stereo unspecified) | 6.025 | 1020 nM |
| Cc1cccc(NC(=O)c2cccc(OCc3nnnn3C)c2)n1 | 6.563 | 278 nM |
| CCN1CCN(C[C@@H]2CN(c3ncc(Cl)cc3F)C[C@@H]2CO)CC1 | 6.156 | 651 nM |
| CN(C(=O)c1ccon1)[C@@H]1CCC[C@@H](Oc2ccccc2)[C@@H]1O | 5.983 | 1190 nM |
| CCN1CCCN(S(=O)(=O)c2cc3ccccc3o2)CC1 | 6.321 | 532 nM |
| CN1CCn2c(-c3cccc(F)c3)cnc2C12CCN(CC1CC1)CC2.O=C(O)C(F)(F)F.O=C(O)C(F)(F)F.O=C(O)C(F)(F)F | 6.083 | 1100 nM |
| CCC(NCc1cccc(Cl)c1)c1ccccc1OCC(=O)NC (stereo unspecified) | 6.073 | 1370 nM |
| Cc1cc(CN2CCC(CNS(=O)(=O)c3ccc(Br)s3)CC2)c(C)o1 | 6.178 | 639 nM |
| CN1CCC(C2CCN(Cc3cccc(-n4cccn4)c3)CC2)C1 (stereo unspecified) | 6.139 | 656 nM |
| CCN(CC)C(CNC(=O)c1c(C)noc1C(C)C)c1ccsc1 (stereo unspecified) | 6.097 | 1360 nM |
| Cc1ccc(CNC2CC3(CCN(CCO)CC3)c3ccccc32)s1.O=C(O)C(F)(F)F.O=C(O)C(F)(F)F (stereo unspecified) | 6.464 | 322 nM |
| CO[C@@H]1CCN(Cc2ccoc2)C[C@@H]1Cc1ccccc1.O=C(O)C(F)(F)F | 5.938 | 1080 nM |
| Cc1cc(C)c(CNCC(O)c2ccc(F)c(F)c2)c(C)c1.Cl (stereo unspecified) | 6.932 | 125 nM |
| Fc1cnc(N2CCCC3(CCN(Cc4ccsc4)C3)C2)nc1.O=C(O)C(F)(F)F.O=C(O)C(F)(F)F (stereo unspecified) | 6.217 | 664 nM |
| COc1ccnc(CN2CCCC(CCc3ccccc3)C2)c1OC (stereo unspecified) | 5.985 | 1030 nM |
| Cc1cccc(C)c1Nc1noc2c1CN(C(=O)c1cn(C)cn1)CC2 | 6.709 | 190 nM |

| SMILES | pIC50 | IC50 |
| --- | --- | --- |
| CC1(C)CC(N(Cc2cccnc2)Cc2cccc(F)c2)CC(C)(C)N1.O=C(O)CC(O)(CC(=O)O)C(=O)O | 6.708 | 291 nM |
| Cc1cccnc1CN1CC[C@H](Oc2cccc(F)c2)[C@@](C)(O)C1 | 6.112 | 710 nM |
| COc1cccc(CNCc2ccc(F)cc2Cl)c1O | 6.118 | 712 nM |
| Cc1nn(C)cc1C1=NS(=O)(=O)N(C)C(C(=O)Nc2ccc(Cl)cc2)=C1 | 6.442 | 247 nM |
| CC(=O)N(c1ccc(F)cc1)c1nc(CN2CCCC2C(C)C)cs1 (stereo unspecified) | 6.177 | 479 nM |
| CN(C)c1ccccc1CN1CCCCC1CNS(C)(=O)=O (stereo unspecified) | 6.043 | 1080 nM |
| CN1CC[C@H](N(Cc2ccccc2)Cc2ccccc2)C[C@H](O)C1 | 6.066 | 897 nM |
| Cc1cnccc1CN1CC[C@H](Oc2cccc(F)c2)[C@@](C)(O)C1 | 5.772 | 1420 nM |
| O=C(NCCN1CCCC1)C1(c2ccc(Cl)cc2)CCOCC1 | 6.003 | 714 nM |
| O=C(C(CNCc1ccsc1)c1ccccc1)N1CCOCC1 (stereo unspecified) | 6.002 | 1450 nM |
| Cc1cc(N2CCC(NC(C)Cc3ccsc3)CC2)nc(C)n1 (stereo unspecified) | 6.277 | 508 nM |
| Fc1ccc(CN2CCC3(CC2)CCN(Cc2nccs2)CC3)cc1.O=C(O)C(F)(F)F.O=C(O)C(F)(F)F | 6.206 | 708 nM |
| I.c1cc2c(cc1C1(CNC3=NCCN3)CCCC1)OCCO2 | 6.321 | 547 nM |
| c1cc(-c2n[nH]cc2-c2ccnc(N3CCCCCC3)n2)ccn1 | 8.34 | 4.12 nM |
| Fc1cccc(C(NCc2ncc[nH]2)c2ccccn2)c1 (stereo unspecified) | 6.434 | 351 nM |
| CCN(CC)Cc1ccccc1NC(=O)N(C)Cc1ccccc1O | 6.076 | 765 nM |
| CCC(NCc1ccccc1C)c1ccccc1OCC(=O)NC (stereo unspecified) | 6.158 | 731 nM |
| CCC(CNC(=O)CNC(C)=O)Oc1cccc(F)c1 (stereo unspecified) | 5.937 | 1020 nM |
| Cn1ccnc1CNC1CCCOc2c1ccc1ccccc21 (stereo unspecified) | 5.947 | 1200 nM |
| COc1ccc(Cn2nnnc2SCC2CCCN(C)C2)cc1 (stereo unspecified) | 5.834 | 1090 nM |
| Cc1cccc(C2(NCCCS(C)(=O)=O)CCCC2)c1 | 6.254 | 659 nM |
| COc1cccc(-n2ccc3nc(N4CCCC4)ncc3c2=O)c1 | 5.801 | 1470 nM |
